Measurements published in ChEMBL document CHEMBL1201861, “Genomics of Drug Sensitity in Cancer screening data, Wellcome Trust Sanger Institute”.

Key:
Experiment in all cases: cells
Conditions in all cases: Homo sapiens
COLO-829 = type: functional, cell-based
Description: SANGER: Inhibition of human COLO-829 cell growth in a cell viability assay.

DJM-1 = type: functional, cell-based;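 note: growth inhibition of human DJM-1 cells, read out by a cell viability assay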
Description: SANGER: Inhibition of human DJM-1 cell growth in a cell viability assay.

ES8 = type: functional, cell-based;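 note: growth inhibition of human ES8 cells, read out with a cell viability assay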
Description: SANGER: Inhibition of human ES8 cell growth in a cell viability assay.

EW-18 = type: functional, cell-based;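 note: growth inhibition of EW-18 cells, read out by a cell viability assay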
Description: SANGER: Inhibition of human EW-18 cell growth in a cell viability assay.

EW-22 = type: functional, cell-based;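 note: growth inhibition of the EW-22 cell line, measured with a cell viability readout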
Description: SANGER: Inhibition of human EW-22 cell growth in a cell viability assay.

EOL1 = type: functional, cell-based;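 note: growth inhibition of EoL-1 cells, read out by a cell viability assay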
Description: SANGER: Inhibition of human EoL-1-cell cell growth in a cell viability assay.

GCIY = type: functional, cell-based;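 note: growth inhibition of the human GCIY cell line, read out by a cell viability assay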
Description: SANGER: Inhibition of human GCIY cell growth in a cell viability assay.

GI-ME-N = type: functional, cell-based;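 note: growth inhibition of human GI-ME-N cells, read out with a cell viability assay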
Description: SANGER: Inhibition of human GI-ME-N cell growth in a cell viability assay.

HAL-01 = type: functional, cell-based;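 note: growth inhibition of human HAL-01 cells, read out with a cell viability assay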
Description: SANGER: Inhibition of human HAL-01 cell growth in a cell viability assay.

HCC1187 = type: functional, cell-based;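 note: growth inhibition of HCC1187 cells, read out with a cell viability assay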
Description: SANGER: Inhibition of human HCC1187 cell growth in a cell viability assay.

HCE-T = type: functional, cell-based;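 note: cell viability assay read-out, reporting inhibition of HCE-T cell growth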
Description: SANGER: Inhibition of human HCE-T cell growth in a cell viability assay.

HH = type: functional, cell-based
Description: SANGER: Inhibition of human HH cell growth in a cell viability assay.

HOP-62 = type: functional, cell-based;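 note: cell growth inhibition determined with a viability assay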
Description: SANGER: Inhibition of human HOP-62 cell growth in a cell viability assay.

IST-SL1 = type: functional, cell-based;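 note: growth inhibition of human IST-SL1 cells, read out with a cell viability assay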
Description: SANGER: Inhibition of human IST-SL1 cell growth in a cell viability assay.

JVM-2 = type: functional, cell-based;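 note: growth inhibition of JVM-2 cells determined by a cell viability assay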
Description: SANGER: Inhibition of human JVM-2 cell growth in a cell viability assay.

K5 = type: functional, cell-based
Description: SANGER: Inhibition of human K5 cell growth in a cell viability assay.

LAN-6 = type: functional, cell-based;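 note: growth inhibition of LAN-6 cells, determined with a cell viability assay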
Description: SANGER: Inhibition of human LAN-6 cell growth in a cell viability assay.

LB2518-MEL = type: functional, cell-based;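 note: growth inhibition of human LB2518-MEL cells, measured with a cell viability assay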
Description: SANGER: Inhibition of human LB2518-MEL cell growth in a cell viability assay.

LS-1034 = type: functional, cell-based
Description: SANGER: Inhibition of human LS-1034 cell growth in a cell viability assay.

LS-123 = type: functional, cell-based
Description: SANGER: Inhibition of human LS-123 cell growth in a cell viability assay.

LS-411N = type: functional, cell-based
Lu-65 = type: functional, cell-based;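 note: growth inhibition of Lu-65 cancer cells, read out by a cell viability assay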
Description: SANGER: Inhibition of human LU-65 cell growth in a cell viability assay.

MFH-ino = type: functional, cell-based;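 note: growth inhibition of human MFH-ino cells, read out by a cell viability assay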
Description: SANGER: Inhibition of human MFH-ino cell growth in a cell viability assay.

MPP-89 = type: functional, cell-based;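 note: growth inhibition of human MPP-89 cells, read out with a cell viability assay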
Description: SANGER: Inhibition of human MPP-89 cell growth in a cell viability assay.

NB10 = type: functional, cell-based;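 note: growth inhibition of NB10 cells, read out by a cell viability assay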
Description: SANGER: Inhibition of human NB10 cell growth in a cell viability assay.

NB6 = type: functional, cell-based;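 note: growth inhibition of NB6 cells, read out by a cell viability assay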
Description: SANGER: Inhibition of human NB6 cell growth in a cell viability assay.

NCI-H1581 = type: functional, cell-based;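 note: cell growth inhibition read out by a viability assay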
Description: SANGER: Inhibition of human NCI-H1581 cell growth in a cell viability assay.

NCI-H209 = type: functional, cell-based;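 note: growth inhibition of human NCI-H209 cells, measured by a cell viability assay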
Description: SANGER: Inhibition of human NCI-H209 cell growth in a cell viability assay.

NCI-H526 = type: functional, cell-based;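 note: growth inhibition of the human NCI-H526 cell line, measured by a cell viability assay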
Description: SANGER: Inhibition of human NCI-H526 cell growth in a cell viability assay.

NCI-H69 = type: functional, cell-based;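 note: growth inhibition of the cell line, read out with a cell viability assay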
Description: SANGER: Inhibition of human NCI-H69 cell growth in a cell viability assay.

NCI-H720 = type: functional, cell-based;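 note: growth inhibition of human NCI-H720 cells determined by a cell viability assay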
Description: SANGER: Inhibition of human NCI-H720 cell growth in a cell viability assay.

NCI-H747 = type: functional, cell-based;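 note: growth inhibition of human NCI-H747 cells, read out by a cell viability assay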
Description: SANGER: Inhibition of human NCI-H747 cell growth in a cell viability assay.

NKM-1 = type: functional, cell-based;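 note: growth inhibition of NKM-1 cells, read out with a cell viability assay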
Description: SANGER: Inhibition of human NKM-1 cell growth in a cell viability assay.

NMC-G1 = type: functional, cell-based;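 note: growth inhibition of the NMC-G1 cell line, measured with a cell viability read-out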
Description: SANGER: Inhibition of human NMC-G1 cell growth in a cell viability assay.

NOS-1 = type: functional, cell-based;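 note: growth inhibition of the human NOS-1 cell line, read out with a cell viability assay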
Description: SANGER: Inhibition of human NOS-1 cell growth in a cell viability assay.

OVCAR-4 = type: functional, cell-based;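 note: growth inhibition of human OVCAR-4 cells, measured with a cell viability assay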
Description: SANGER: Inhibition of human OVCAR-4 cell growth in a cell viability assay.

P30-OHK = type: functional, cell-based;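 note: growth inhibition of the P30-OHK cell line, read out with a cell viability assay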
Description: SANGER: Inhibition of human P30-OHK cell growth in a cell viability assay.

PSN1 = type: functional, cell-based;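 note: suppression of growth of human PSN1 cells, read out by a cell viability assay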
Description: SANGER: Inhibition of human PSN1 cell growth in a cell viability assay.

QIMR-WIL = type: functional, cell-based;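 note: growth inhibition of QIMR-WIL cells, read out with a cell viability assay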
Description: SANGER: Inhibition of human QIMR-WIL cell growth in a cell viability assay.

RPMI-8866 = type: functional, cell-based
Description: SANGER: Inhibition of human RPMI-8866 cell growth in a cell viability assay.

RS4-11 = type: functional, cell-based;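 note: growth inhibition of RS4-11 cells, read out by a cell viability assay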
Description: SANGER: Inhibition of human RS4-11 cell growth in a cell viability assay.

SCC-15 = type: functional, cell-based;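 note: growth inhibition of SCC-15 cells, read out with a cell viability assay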
Description: SANGER: Inhibition of human SCC-15 cell growth in a cell viability assay.

SF-268 = type: functional, cell-based;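 note: growth inhibition of SF-268 cells determined with a cell viability assay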
Description: SANGER: Inhibition of human SF268 cell growth in a cell viability assay.

SHP77 = type: functional, cell-based, SHP-77;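 note: growth inhibition of human SHP-77 cells measured by a cell viability assay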
Description: SANGER: Inhibition of human SHP-77 cell growth in a cell viability assay.

SJSA-1 = type: functional, cell-based;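 note: growth inhibition of human SJSA-1 cells, read out through a cell viability measurement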
Description: SANGER: Inhibition of human SJSA-1 cell growth in a cell viability assay.

SK-MEL-2 = type: functional, cell-based;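 note: growth inhibition of human SK-MEL-2 cells measured with a cell viability assay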
Description: SANGER: Inhibition of human SK-MEL-2 cell growth in a cell viability assay.

SW872 = type: functional, cell-based;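 note: growth inhibition of SW872 cells, read out by a viability assay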
Description: SANGER: Inhibition of human SW872 cell growth in a cell viability assay.

TE-1 = type: functional, cell-based;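 note: growth inhibition of the human TE-1 cell line, read out with a cell viability assay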
Description: SANGER: Inhibition of human TE-1 cell growth in a cell viability assay.

A4-Fuk = type: functional, cell-based;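 note: growth inhibition of A4-Fuk cells, read out by a cell viability assay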
Description: SANGER: Inhibition of human A4-Fuk cell growth in a cell viability assay.

ACN = type: functional, cell-based;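 note: growth inhibition of the human ACN cell line, read out via cell viability testing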
Description: SANGER: Inhibition of human ACN cell growth in a cell viability assay.

AM-38 = type: functional, cell-based;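 note: growth inhibition of AM-38 cells of human origin, read out by a cell viability assay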
Description: SANGER: Inhibition of human AM-38 cell growth in a cell viability assay.

UACC-257 = type: functional, cell-based
Description: SANGER: Inhibition of human UACC-257 cell growth in a cell viability assay.

CAS-1 = type: functional, cell-based;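 note: growth inhibition of CAS-1 cells, measured with a cell viability assay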
Description: SANGER: Inhibition of human CAS-1 cell growth in a cell viability assay.

COLO-320-HSR = type: functional, cell-based;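 note: growth inhibition of COLO-320-HSR cells, determined with a cell viability assay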
Description: SANGER: Inhibition of human COLO-320-HSR cell growth in a cell viability assay.

HCE-4 = type: functional, cell-based;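 note: cell viability assay measuring inhibition of growth in the human HCE-4 cell line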
Description: SANGER: Inhibition of human HCE-4 cell growth in a cell viability assay.

SNU-C2B = type: functional, cell-based;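 note: cell viability readout used to measure compound-driven suppression of SNU-C2B cell proliferation, IC50 marking half-maximal growth inhibition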
Description: SANGER: Inhibition of human SNU-C2B cell growth in a cell viability assay.

Measured: IC50

Cc1ccc(NC(=O)c2cccc(C(C)(C)C#N)c2)cc1Nc1ccc2ncn(C)c(=O)c2c1
4.76 nM: LB2518-MEL
506 nM: NCI-H747
1290 nM: GI-ME-N
< 15.6 nM: ACN
735 nM: NKM-1
3230 nM: QIMR-WIL
134 nM: K5
1430 nM: SJSA-1
25.6 nM: COLO-829
96.5 nM: SW872
92.7 nM: NOS-1
484 nM: A4-Fuk
682 nM: LAN-6
27.5 nM: UACC-257
3220 nM: SK-MEL-2
91.6 nM: LS-411N
27.4 nM: PSN1
not listed: HCE-4 | SNU-C2B
> 4000 nM: all other assays above

CCn1c(-c2nonc2N)nc2cnc(Oc3cccc(NC(=O)c4ccc(OCCN5CCOCC5)cc4)c3)cc21 [GSK-269962A]
2450 nM: NCI-H720
644 nM: MFH-ino
49.5 nM: GI-ME-N
1050 nM: SJSA-1
2170 nM: IST-SL1
1710 nM: LB2518-MEL
887 nM: SW872
138 nM: NB10
591 nM: NB6
490 nM: QIMR-WIL
819 nM: ES8
847 nM: CAS-1
1260 nM: MPP-89
not listed: SCC-15 | HCE-4 | SNU-C2B
> 2500 nM: all other assays above

Cc1[nH]c(/C=C2\C(=O)Nc3ccc(S(=O)(=O)Cc4c(Cl)cccc4Cl)cc32)c(C)c1C(=O)N1CCC[C@@H]1CN1CCCC1 [PHA-665752]
> 2000 nM: all assays above
